The text below walks through data of patent publication US11596150B2, “Long chain glycolipids useful to avoid perishing or microbial contamination of materials” (IMD NATURAL SOLUTIONS GMBH, priority 2011, dated 2023).

≈ marks a conversion by molar mass, not a printed value. Read-outs that look alike come from different tables or passages of the source.

The subject of assay [1] is Dekkera naardenensis (DSM70743). Put plainly: MIC determination in microtiter plates (non-pathogenic microorganisms). It counts as cell-based. Conditions: Brettanomyces naardenensis, 48 h, read-out: MIC values after 48 h.
For assay [2], the system named is Lactobacillus plantarum (DSM 12028). The description is as above. The class given is cell-based. The settings on record: Lactiplantibacillus plantarum; Lactobacillus plantarum (DSM12028); 48 h; read-out: MIC values after 48 h.
Assay [3] has as its system Zygosaccharomyces rouxii (NCYC381). Described as above. The class given is cell-based. The settings on record: 48 h, read-out: MIC values after 48 h.
Assay [4] has as its system Pyricularia oryzae (DSM62938). Put plainly: microbe, parasite or virus in culture. The class given is cell-based. The settings on record: DSM62938, 48 h, read-out: MIC values after 48 h.
The test system of assay [5] is Zygosaccharomyces bailii (DSM70492). Kind of assay: MIC determination in microtiter plates (non-pathogenic microorganisms). The class given is cell-based. Conditions: 48 h, read-out: MIC values after 48 h.
A further assay deals with Candida albicans. Put plainly: MIC / growth inhibition after 48 h (Example 9). The settings on record: ATCC10231, 48 h, read-out: MIC values after 48 h.
The subject of assay [6] is Talaromyces luteus (CBS348.51). Put plainly: MIC after 48 h (Example 9). It counts as cell-based. Conditions: Ascospirella lutea.
For assay [7], the system named is Clostridium perfringens (ATCC 13124). Put plainly: microbe, parasite or virus in culture. It counts as cell-based. Conditions: ATCC13124, 48 h.
The test system of assay [8] is Bacillus subtilis (ATCC6633). Put plainly: MIC determination in microtiter plates (non-pathogenic microorganisms). Conditions: 48 h, read-out: MIC values after 48 h. It counts as cell-based.
Assay [9] deals with Aspergillus niger (ATCC 16404). Described as above. Conditions: Aspergillus niger (ATCC16404); 48 h; read-out: MIC values after 48 h. The class given is cell-based.
For assay [10], the system named is Saccharomyces cerevisiae (HT10). The description is as above. The settings on record: 48 h, read-out: MIC values after 48 h. The class given is cell-based.
Assay [11] relates to Propionibacterium acnes (ATCC6919). Kind of assay: MIC after 48 h (Example 9). The class given is cell-based. Conditions: Cutibacterium acnes.
In assay [12] the test system is Zygosaccharomyces bisporus (DSM70415). Put plainly: MIC determination in microtiter plates (non-pathogenic microorganisms). The class given is cell-based. Conditions: 48 h, read-out: MIC values after 48 h.
The subject of assay [13] is Byssochlamys fulva (DSM62097). Described as above. The class given is cell-based. The settings on record: Paecilomyces fulvus, 48 h, read-out: MIC values after 48 h.
Assay [14] deals with Aspergillus fumigatus (ATCC 1028). Kind of assay: microbe, parasite or virus in culture. The class given is cell-based.
Assay [15] relates to Corynebacterium variabile (DSM20132). Put plainly: MIC determination in microtiter plates (non-pathogenic microorganisms). It counts as cell-based. The settings on record: 48 h, read-out: MIC values after 48 h.
In assay [16] the test system is Zygosaccharomyces florentinus (DSM70506). The description is as above. The settings on record: Zygotorulaspora florentina, 48 h, read-out: MIC values after 48 h. The class given is cell-based.
Assay [17] deals with Dekkera bruxellensis (DSM70726). The assay is described as above. The class given is cell-based. Conditions: Brettanomyces bruxellensis, 48 h, read-out: MIC values after 48 h.
For assay [18], the system named is Staphylococcus aureus (ATCC 6538P). Put plainly: microbe, parasite or virus in culture. The class given is cell-based. The settings on record: ATCC6538P, Mueller-Hinton Broth, 1% DMSO, 20 hours at 36° C., read-out: MIC S. aureus.
In assay [19] the test system is Mucor plumbeus (MUCL49355). Kind of assay: MIC determination in microtiter plates (non-pathogenic microorganisms). It counts as cell-based.
The mark [20] stands for this setting: M. plumbeus (MUCL49355), SDB medium, day not given (Table 19).
Where [21] appears, read: M. plumbeus (MUCL49355), SDB medium, day not printed (first line of Table 19).
Where [22] appears, read: Mucor plumbeus (MUCL49355), 48 h, read-out: MIC values after 48 h.
The mark [23] stands for this setting: M. plumbeus (MUCL49355), SDB medium, day 2.
Where [24] appears, read: M. plumbeus (MUCL49355), SDB medium, day 7.
[25] abbreviates: M. plumbeus (MUCL49355), SDB medium, day 16.
Where [26] appears, read: M. plumbeus (MUCL49355), SDB medium, day 28.

Take `CCCCC(CCCC(O)C(O)CCCCCCCCCCCCCCC(O)C(=O)O)OC1OCC(O)C(O)C1OC1OCC(OC(C)=O)C(O)C1OC1OC(COC(=O)CC(C)C)C(O)C(O)C1O` (stereo not shown) [[1], 2,17,18-trihydroxy-hexacosanoic acid 22-O-[6-isovaleroyl-hexapyranosyl-(1→2)-5-acetyl-pentapyranosyl-(1→2)-penta-pyranosid]-]: the MIC in assay [1] is 6.3 µg/mL (≈ 6.22 µM); in assay [2], 25 µg/mL (≈ 24.7 µM); in [3] it was 6.3 µg/mL (≈ 6.22 µM); in assay [4] it was 6 µg/mL (≈ 5.92 µM); in [5], 6.3 µg/mL (≈ 6.22 µM); in the assay with Candida albicans, 30 µg/mL (≈ 29.6 µM). For the same compound, the MIC came out at 12.5 µg/mL (≈ 12.3 µM) in [6]; 60 µg/mL (≈ 59.2 µM) in assay [7] (read-out: MIC C. perfringens); 60 µg/mL (≈ 59.2 µM) in assay [7] (read-out: MIC values after 48 h); 3.1 µg/mL (≈ 3.06 µM) in [8]; 3.1 µg/mL (≈ 3.06 µM) in assay [9]; 6.3 µg/mL (≈ 6.22 µM) in assay [10]. Further, the MIC in assay [11] worked out at 100 µg/mL (≈ 98.7 µM); in [12], 12.5 µg/mL (≈ 12.3 µM); in assay [13], 3.1 µg/mL (≈ 3.06 µM); in assay [14] (Aspergillus fumigatus (ATCC1028), 48 h, read-out: MIC values after 48 h) it was 20 µg/mL (≈ 19.7 µM); in [14] (Aspergillus fumigatus, ATCC1028, 72 h, Potato Dextrose Broth, 1% DMSO, 3 days at 28° C., read-out: MIC A. fumigatus), 20 µg/mL (≈ 19.7 µM); in [15], 1.6 µg/mL (≈ 1.58 µM). Moreover, the MIC in [16] worked out at 6.3 µg/mL (≈ 6.22 µM); in assay [17], 6.3 µg/mL (≈ 6.22 µM); in assay [18], 200 µg/mL (≈ 197 µM); in assay [19] (setting [20]) it was 50; in assay [19] (setting [21]), 25; in assay [19] (setting [22]) it was 6.3 µg/mL (≈ 6.22 µM).
For the compound `CCCCC(CCCC(O)C(O)CCCCCCCCCCCCCCC(O)C(=O)O)OC1OCC(O)C(O)C1OC1OCC(O)C(O)C1OC1OC(COC(=O)CC(C)C)C(OC(C)=O)C(O)C1O` (stereo not shown) [[13]], the MIC in [1] was 12.5 µg/mL (≈ 12.3 µM); in [2], 25 µg/mL (≈ 24.7 µM); in [3], 12.5 µg/mL (≈ 12.3 µM); in [4], 6 µg/mL (≈ 5.92 µM); in assay [5] it was 6.3 µg/mL (≈ 6.22 µM); in assay [6], 25 µg/mL (≈ 24.7 µM). In addition, the MIC in assay [8] came out at 3.1 µg/mL (≈ 3.06 µM); in [9], 12.5 µg/mL (≈ 12.3 µM); in assay [10], 12.5 µg/mL (≈ 12.3 µM); in assay [12], 25 µg/mL (≈ 24.7 µM); in assay [13], 3.1 µg/mL (≈ 3.06 µM); in assay [15] it was 1.6 µg/mL (≈ 1.58 µM). For the same compound, the MIC in assay [16] was determined as 12.5 µg/mL (≈ 12.3 µM); in assay [17], 6.3 µg/mL (≈ 6.22 µM); in [19] (setting [20]) it was 25; in [19] (setting [21]) it was 12.5; in assay [19] (setting [22]), 12.5 µg/mL (≈ 12.3 µM).
On to `CCCCC(CCCC(O)C(O)CCCCCCCCCCCCCCC(O)C(=O)O)OC1OCC(O)C(O)C1OC1OCC(OC(C)=O)C(O)C1OC1OC(CO)C(O)C(O)C1O` (stereo not shown) [[14]], for which the MIC in [1] was 25 µg/mL (≈ 26.9 µM); in assay [2], 25 µg/mL (≈ 26.9 µM); in assay [3], 25 µg/mL (≈ 26.9 µM); in assay [4], 25 µg/mL (≈ 26.9 µM); in assay [5], 25 µg/mL (≈ 26.9 µM); in assay [6], 50 µg/mL (≈ 53.8 µM). Moreover, the MIC in assay [8] came out at 1.6 µg/mL (≈ 1.72 µM); in [9] it was 50 µg/mL (≈ 53.8 µM); in assay [10], 50 µg/mL (≈ 53.8 µM); in assay [12], 50 µg/mL (≈ 53.8 µM); in assay [15], 1.6 µg/mL (≈ 1.72 µM); in assay [16] it was 50 µg/mL (≈ 53.8 µM). Besides, the MIC was 50 µg/mL (≈ 53.8 µM) in [17], above 100 in [19] (setting [20]), 50 in [19] (setting [21]) and 50 µg/mL (≈ 53.8 µM) in [19] (setting [22]).
As for `O=C(O)c1ccccc1` [benzoic acid, reference compound], the MIC was 1000 in assay [19] (setting [23]), 1000 in assay [19] (setting [24]), above 1000 in [19] (setting [25]) and above 1000 in assay [19] (setting [26]).
In the case of `CCCCC(CCCC(O)C(O)CCCCCCCCCCCCCCC(O)C(=O)O)OC1OCC(O)C(O)C1OC1OCC(O)C(O)C1OC1OC(COC(C)=O)C(OC(C)=O)C(O)C1O` (stereo not shown) [[6], Glykenin IIIB or Glykenin IIIC], the MIC in assay [19] (setting [20]) and in [19] (setting [21]) was 25 each time.
In the case of `CCCCC(CCCC(O)C(O)CCCCCCCCCCCCCCC(O)C(=O)O)OC1OCC(O)C(O)C1OC1OCC(O)C(O)C1OC1OC(CO)C(O)C(O)C1O` (stereo not shown) [[16], Glykenin DGC or Glykenin DGB], the MIC came to 50 µg/mL (≈ 56.4 µM) in assay [1]; 50 µg/mL (≈ 56.4 µM) in assay [2]; 100 µg/mL (≈ 113 µM) in [3]; 25 µg/mL (≈ 28.2 µM) in [4]; 25 µg/mL (≈ 28.2 µM) in assay [5]; 50 µg/mL (≈ 56.4 µM) in assay [6]. Also, the MIC in assay [8] is 3.1 µg/mL (≈ 3.49 µM); in assay [9], 25 µg/mL (≈ 28.2 µM); in [10], above 100 µg/mL; in [12] it was above 100 µg/mL; in [13], 6.3 µg/mL (≈ 7.1 µM); in assay [15], 1.6 µg/mL (≈ 1.8 µM). For the same compound, the MIC is above 100 µg/mL in [16]; above 100 µg/mL in [17]; above 100 in assay [19] (setting [20]); above 100 in assay [19] (setting [21]); above 100 µg/mL in assay [19] (setting [22]).
For `CCCCCCC(CCCC(O)CCCCCCCCCCCCCC(O)C(=O)O)OC1OCC(O)C(O)C1OC1OCC(OC(C)=O)C(O)C1OC1OC(COC(C)=O)C(O)C(O)C1O` (stereo not shown) [[10], Antibiotic F 19848A], the MIC in [19] (setting [20]) came out at 50; in [19] (setting [21]), 12.5.
In the same order, the values of `CCCCCCC(CCCC(O)CCCCCCCCCCCCCC(O)C(=O)O)OC1OCC(O)C(O)C1OC1OCC(OC(C)=O)C(O)C1OC1OC(COC(=O)CC(C)C)C(O)C(O)C1O` (stereo not shown) [[18]] are above 100 and 25.
With `C/C=C/C=C/C(=O)O` [sorbic acid, reference compound], the MIC is 250 in assay [19] (setting [23]), 500 in [19] (setting [24]), 1000 in [19] (setting [25]) and 1000 in assay [19] (setting [26]).
